The results in this text go back to patent publication US10736883B2, “Triazole furan compounds as agonists of the APJ receptor” (AMGEN INC., priority 2016, dated 2020).

Chain of APJ receptor (P35414 whole entry): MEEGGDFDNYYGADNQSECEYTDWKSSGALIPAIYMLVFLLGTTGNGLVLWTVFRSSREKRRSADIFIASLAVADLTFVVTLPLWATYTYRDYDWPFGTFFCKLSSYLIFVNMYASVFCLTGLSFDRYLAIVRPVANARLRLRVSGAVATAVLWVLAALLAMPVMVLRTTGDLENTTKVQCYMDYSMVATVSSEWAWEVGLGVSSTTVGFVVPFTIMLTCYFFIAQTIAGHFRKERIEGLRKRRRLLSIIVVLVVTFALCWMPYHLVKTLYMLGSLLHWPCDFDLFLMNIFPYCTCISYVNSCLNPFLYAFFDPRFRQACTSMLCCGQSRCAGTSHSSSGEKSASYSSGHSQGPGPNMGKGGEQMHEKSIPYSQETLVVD

The assay concerns the target APJ receptor (Homo sapiens (Human), UniProt P35414). Kind of assay: [35S]GTPγS binding assay on membranes from CHO cells stably expressing human APJ receptor. The following applies: membranes of CHO cells stably expressing human APJ receptor, means of several independent experiments, read-out: Activity hAPJ SPA EC50 IP. Format: biochemical. In a few lines:
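EC50 values were obtained by non-linear regression of [35S]GTPγS (0.2 nM) binding after 90 min at RT, with nonspecific binding defined by 100 μM GTPγS. Reactions used human APJ–expressing CHO cell membranes on WGA PS beads in HEPES pH 7.5 buffer with 5 mM MgCl2, 200 mM NaCl, 3 μM GDP and 0.1% BSA.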
A general note: GTPγS resists hydrolysis and so accumulates on activated G proteins.
The term EC50 denotes the midpoint of the concentration-response curve. On to `COc1cccc(OC)c1-n1c(NS(=O)(=O)[C@@H]2C[C@H]2c2ccc(Cl)cc2)nnc1-c1ccco1` (single isomer, unassigned) [Example 192.0, (1R,2S)-2-(4-Chlorophenyl)-N-(4-(2,6-dimethoxyphenyl)-5-(2-furanyl)-4H-1,2,4-triazol-3-yl)cyclopropanesulfonamide or (1S,2R)-2-(4-chlorophenyl)-N-(4-(2,6-dimethoxyphenyl)-5-(2-furanyl)-4H-1,2,4-triazol-3-yl)cyclopropanesulfonamide], for which the EC50 was found to be 2.8 nM.

Turning to `COc1cccc(OC)c1-n1c(NS(=O)(=O)[C@@H](C)[C@@](C)(O)c2ccc(C#N)cn2)nnc1-c1ccc(C)o1` (single isomer, unassigned) [Example 227.0], the EC50 is 0.35 nM.

In the case of `COc1cccc(OC)c1-n1c(NS(=O)(=O)[C@@H](C)[C@](C)(F)c2ncc(C#N)cn2)nnc1-c1ccc(C)o1` (single isomer, unassigned) [Example 230.0], the EC50 was determined as 0.41 nM.

On to `COc1cccc(OC)c1-n1c(NS(=O)(=O)C[C@@](C)(F)c2ncc(C#N)cn2)nnc1-c1ccc(C)o1` (single isomer, unassigned) [Example 231.0, (2S)-2-(5-Cyano-2-pyrimidinyl)-N-(4-(2,6-dimethoxyphenyl)-5-(5-methyl-2-furanyl)-4H-1,2,4-triazol-3-yl)-2-fluoro-1-propanesulfonamide or (2R)-2-(5-cyano-2-pyrimidinyl)-N-(4-(2,6-dimethoxyphenyl)-5-(5-methyl-2-furanyl)-4H-1,2,4-triazol-3-yl)-2-fluoro-1-propanesulfonamide], for which the EC50 was determined as 0.44 nM.

As to `COc1cccc(OC)c1-n1c(NS(=O)(=O)C[C@](C)(O)c2ncc(C#N)cn2)nnc1-c1ccc(C)o1` (single isomer, unassigned) [Example 233.0, (R)-2-(5-Cyanopyrimidin-2-yl)-N-(4-(2,6-dimethoxyphenyl)-5-(5-methylfuran-2-yl)-4H-1,2,4-triazol-3-yl)-2-hydroxypropane-1-sulfonamide or (S)-2-(5-cyanopyrimidin-2-yl)-N-(4-(2,6-dimethoxyphenyl)-5-(5-methylfuran-2-yl)-4H-1,2,4-triazol-3-yl)-2-hydroxypropane-1-sulfonamide], the EC50 amounted to 0.5 nM.

With `COc1cccc(OC)c1-n1c(NS(=O)(=O)C[C@@](C)(F)c2ncc(F)cn2)nnc1-c1ccc(C)o1` (single isomer, unassigned) [Example 237.0, (2S)—N-(4-(2,6-Dimethoxyphenyl)-5-(5-methyl-2-furanyl)-4H-1,2,4-triazol-3-yl)-2-fluoro-2-(5-fluoro-2-pyrimidinyl)-1-propanesulfonamide or (2R)—N-(4-(2,6-dimethoxyphenyl)-5-(5-methyl-2-furanyl)-4H-1,2,4-triazol-3-yl)-2-fluoro-2-(5-fluoro-2-pyrimidinyl)-1-propanesulfonamide], the EC50 was 0.58 nM.

On to `COc1cccc(OC)c1-n1c(NS(=O)(=O)[C@@H](C)[C@](C)(N)c2ncc(F)cn2)nnc1-c1ccc(C)o1` (single isomer, unassigned) [Example 243.0], for which the EC50 was 0.87 nM.

As to `COc1cccc(OC)c1-n1c(NS(=O)(=O)C[C@](C)(F)c2ncc(C#N)cn2)nnc1-c1ccc(C)o1` (single isomer, unassigned) [Example 245.0, (2R)-2-(5-Cyano-2-pyrimidinyl)-N-(4-(2,6-dimethoxyphenyl)-5-(5-methyl-2-furanyl)-4H-1,2,4-triazol-3-yl)-2-fluoro-1-propanesulfonamide or (2S)-2-(5-cyano-2-pyrimidinyl)-N-(4-(2,6-dimethoxyphenyl)-5-(5-methyl-2-furanyl)-4H-1,2,4-triazol-3-yl)-2-fluoro-1-propanesulfonamide], the EC50 came to 0.95 nM.

Consider `COc1cccc(OC)c1-n1c(NS(=O)(=O)[C@@H](C)[C@](C)(N)c2ncc(F)cn2)nnc1-c1ccc(C)o1` (single isomer, unassigned) [Example 246.0], for which the EC50 was determined as 1.4 nM.

Consider `COc1cccc(OC)c1-n1c(NS(=O)(=O)C[C@@](C)(O)c2ncc(C#N)cn2)nnc1-c1ccc(C)o1` (single isomer, unassigned) [Example 248.0, (2S)-2-(5-Cyano-2-pyrimidinyl)-N-(4-(2,6-dimethoxyphenyl)-5-(5-methyl-2-furanyl)-4H-1,2,4-triazol-3-yl)-2-hydroxy-1-propanesulfonamide or (2R)-2-(5-cyano-2-pyrimidinyl)-N-(4-(2,6-dimethoxyphenyl)-5-(5-methyl-2-furanyl)-4H-1,2,4-triazol-3-yl)-2-hydroxy-1-propanesulfonamide], for which the EC50 came out at 1.6 nM.

For the compound `COc1cccc(OC)c1-n1c(NS(=O)(=O)C[C@@](C)(O)c2ncc(F)cn2)nnc1-c1ccc(C)o1` (single isomer, unassigned) [Example 249.0], the EC50 was 2.5 nM.

Regarding `COc1cccc(OC)c1-n1c(NS(=O)(=O)[C@@H](C)[C@H](OC)c2cn3ccccc3n2)nnc1-c1ccc(C)o1` (single isomer, unassigned) [Example 263.0, (1R,2S)—N-(4-(2,6-Dimethoxyphenyl)-5-(5-methyl-2-furanyl)-4H-1,2,4-triazol-3-yl)-1-imidazo[1,2-a]pyridin-2-yl-1-methoxy-2-propanesulfonamide or (1S,2R)—N-(4-(2,6-dimethoxyphenyl)-5-(5-methyl-2-furanyl)-4H-1,2,4-triazol-3-yl)-1-imidazo[1,2-a]pyridin-2-yl-1-methoxy-2-propanesulfonamide], the EC50 was found to be 0.086 nM.

For `COc1cccc(OC)c1-n1c(NS(=O)(=O)[C@@H](C)[C@H](O)c2cn3ccccc3n2)nnc1-c1ccc(C)o1` (single isomer, unassigned) [Example 265.0, (1R,2S)—N-(4-(2,6-Dimethoxyphenyl)-5-(5-methyl-2-furanyl)-4H-1,2,4-triazol-3-yl)-1-hydroxy-1-imidazo[1,2-a]pyridin-2-yl-2-propanesulfonamide or (1S,2R)—N-(4-(2,6-dimethoxyphenyl)-5-(5-methyl-2-furanyl)-4H-1,2,4-triazol-3-yl)-1-hydroxy-1-imidazo[1,2-a]pyridin-2-yl-2-propanesulfonamide], the EC50 amounted to 0.18 nM.

Turning to `COc1cccc(OC)c1-n1c(NS(=O)(=O)[C@@H](C)[C@H](O)c2cc3ccccn3n2)nnc1-c1ccc(C)o1` (single isomer, unassigned) [Example 266.0, (1R,2S)—N-(4-(2,6-Dimethoxyphenyl)-5-(5-methyl-2-furanyl)-4H-1,2,4-triazol-3-yl)-1-hydroxy-1-pyrazolo[1,5-a]pyridin-2-yl-2-propanesulfonamide or (1S,2R)—N-(4-(2,6-dimethoxyphenyl)-5-(5-methyl-2-furanyl)-4H-1,2,4-triazol-3-yl)-1-hydroxy-1-pyrazolo[1,5-a]pyridin-2-yl-2-propanesulfonamide], the EC50 was 0.21 nM.

With `COc1cccc(OC)c1-n1c(NS(=O)(=O)[C@@H](C)[C@H](O)c2cccc3ccnn23)nnc1-c1ccc(C)o1` (single isomer, unassigned) [Example 267.0, (1R,2S)—N-(4-(2,6-Dimethoxyphenyl)-5-(5-methyl-2-furanyl)-4H-1,2,4-triazol-3-yl)-1-hydroxy-1-pyrazolo[1,5-a]pyridin-7-yl-2-propanesulfonamide or (1S,2R)—N-(4-(2,6-dimethoxyphenyl)-5-(5-methyl-2-furanyl)-4H-1,2,4-triazol-3-yl)-1-hydroxy-1-pyrazolo[1,5-a]pyridin-7-yl-2-propanesulfonamide], the EC50 stood at 0.43 nM.

Turning to `COc1cccc(OC)c1-n1c(NS(=O)(=O)[C@H](C)[C@H](OC)c2cn3ccccc3n2)nnc1-c1ccc(C)o1` (single isomer, unassigned) [Example 268.0, (1S,2S)—N-(4-(2,6-Dimethoxyphenyl)-5-(5-methyl-2-furanyl)-4H-1,2,4-triazol-3-yl)-1-imidazo[1,2-a]pyridin-2-yl-1-methoxy-2-propanesulfonamide or (1R,2R)—N-(4-(2,6-dimethoxyphenyl)-5-(5-methyl-2-furanyl)-4H-1,2,4-triazol-3-yl)-1-imidazo[1,2-a]pyridin-2-yl-1-methoxy-2-propanesulfonamide], the EC50 amounted to 0.47 nM.

With `COc1cccc(OC)c1-n1c(NS(=O)(=O)[C@H](C)[C@@H](O)c2ncn3ccccc23)nnc1-c1ccc(C)o1` (single isomer, unassigned) [Example 270.0, (1R,2S)—N-(4-(2,6-Dimethoxyphenyl)-5-(5-methyl-2-furanyl)-4H-1,2,4-triazol-3-yl)-1-hydroxy-1-imidazo[1,5-a]pyridin-1-yl-2-propanesulfonamide or (1S,2R)—N-(4-(2,6-dimethoxyphenyl)-5-(5-methyl-2-furanyl)-4H-1,2,4-triazol-3-yl)-1-hydroxy-1-imidazo[1,5-a]pyridin-1-yl-2-propanesulfonamide], the EC50 stood at 0.56 nM.

As to `COc1cccc(OC)c1-n1c(NS(=O)(=O)[C@@H](C)[C@@H](O)c2cc3ccccn3n2)nnc1-c1ccc(C)o1` (single isomer, unassigned) [Example 271.0, (1S,2S)—N-(4-(2,6-Dimethoxyphenyl)-5-(5-methyl-2-furanyl)-4H-1,2,4-triazol-3-yl)-1-hydroxy-1-pyrazolo[1,5-a]pyridin-2-yl-2-propanesulfonamide or (1R,2R)—N-(4-(2,6-dimethoxyphenyl)-5-(5-methyl-2-furanyl)-4H-1,2,4-triazol-3-yl)-1-hydroxy-1-pyrazolo[1,5-a]pyridin-2-yl-2-propanesulfonamide], the EC50 was 0.62 nM.

For `COc1cccc(OC)c1-n1c(NS(=O)(=O)[C@@H](C)[C@H](O)c2cn(C)cn2)nnc1-c1ccc(C)o1` (single isomer, unassigned) [Example 273.0, (1R,2S)—N-(4-(2,6-Dimethoxyphenyl)-5-(5-methyl-2-furanyl)-4H-1,2,4-triazol-3-yl)-1-hydroxy-1-(1-methyl-1H-imidazol-4-yl)-2-propanesulfonamide or (1S,2R)—N-(4-(2,6-dimethoxyphenyl)-5-(5-methyl-2-furanyl)-4H-1,2,4-triazol-3-yl)-1-hydroxy-1-(1-methyl-1H-imidazol-4-yl)-2-propanesulfonamide], the concentration giving a half-maximal response (EC50) was determined as 0.72 nM.
